Test results published in US20240335508A1, “HYBRID GOLD NANOPARTICLE-LIPID NANOPARTICLES AND METHODS OF USE AND PRODUCTION THEREOF” (THE BOARD OF REGENTS OF THE UNIVERSITY OF OKLAHOMA, priority 2023, published 2024).

System: TOV-112D cells
Test: DOX AuNSV cytotoxicity, MTS assay
Assay type: cell-based
Settings: 0.5 and 0.25 μg/mL DOX
Procedure: TOV-112D cells were cultured in RPMI 1640 media containing 10% FBS and 1% penicillin-streptomycin at 37° C. with 5% CO2. Cells were seeded on 96-well plates in 100 μL of media at 7,500 cells per well. The next day, cells were treated in triplicate with NSVs, AuNSVs, DOX, DOX NSVs, and DOX AuNSVs at concentrations of 0.5, 0.25, 0.1, and 0.05 μg/mL DOX equivalence. After 24, 48, and 72 hours of treatment, 10 μL of CellTiter 96® AQueous One Solution Cell Proliferation Assay (MTS) (Promega, Madison, WI) was added to each well and incubated for 3-4 hours. After incubation, the well absorbance was measured at 490 nm with a SPECTROstar plate reader with cell viability calculated from the ratio of absorbance between untreated controls and each treatment group.

**Q.** Which Cell viability does the source give for `COc1cccc2c1C(=O)c1c(O)c3c(c(O)c1C2=O)C[C@@](O)(C(=O)CO)C[C@@H]3O[C@H]1C[C@H](N)[C@H](O)[C@H](C)O1` [DOX, Doxorubicin] here?
**A.** Its Cell viability is “decreased cell viability faster than either the DOX NSV or DOX AuNSV”.
